This is an account of results in US20070270418A1, “Inhibitors of P38 and Methods of Using the Same” (priority 2003, published 2007).

Common to all, as to assay: Broad selectivity panel, 32P incorporation
Format in all cases: biochemical

The target in one test is T1, c-RAF (Homo sapiens, UniProt P04049).
T1 construct: purchased Upstate (Charlottesville, Va.)
The settings on record: 40 μM ATP, read-out: Percent inhibition c-RAF; for inhibition at 0.1 µM: 0.1 μM compound; for inhibition at 1 µM: 1 μM compound. Here is the method:
(§1) Various compounds of the present invention are screened against a panel of 24 additional kinases (Upstate, Charlottesville, Va.). Compounds are tested 0.1 μM and 1 μM in reactions containing 40 μM ATP. Incorporation of radiolabeled phosphate (^32P) into each kinase substrate is measured in the presence and absence of test compound. Results are reported as the percent decrease in the amount of ^32P incorporated into the substrate in the presence of compound, compared to buffer control.

The next test deals with T2, FGFR3 (Homo sapiens, UniProt P22607).
T2 construct: purchased Upstate (Charlottesville, Va.)
The settings on record: 40 μM ATP, read-out: Percent inhibition FGFR3; for inhibition at 0.1 µM: 0.1 μM compound; for inhibition at 1 µM: 1 μM compound. On the procedure:
as §1

The target in another test is T3, CK2 (Homo sapiens, UniProt P68400).
T3 construct: purchased Upstate (Charlottesville, Va.)
As to conditions: 40 μM ATP, read-out: Percent inhibition CK2; for inhibition at 0.1 µM: 0.1 μM compound; for inhibition at 1 µM: 1 μM compound. On the procedure:
as §1

In another test the target is T4, SAPK4 (Homo sapiens, UniProt O15264).
T4 construct: purchased Upstate (Charlottesville, Va.)
T4 sequence (O15264 1-365): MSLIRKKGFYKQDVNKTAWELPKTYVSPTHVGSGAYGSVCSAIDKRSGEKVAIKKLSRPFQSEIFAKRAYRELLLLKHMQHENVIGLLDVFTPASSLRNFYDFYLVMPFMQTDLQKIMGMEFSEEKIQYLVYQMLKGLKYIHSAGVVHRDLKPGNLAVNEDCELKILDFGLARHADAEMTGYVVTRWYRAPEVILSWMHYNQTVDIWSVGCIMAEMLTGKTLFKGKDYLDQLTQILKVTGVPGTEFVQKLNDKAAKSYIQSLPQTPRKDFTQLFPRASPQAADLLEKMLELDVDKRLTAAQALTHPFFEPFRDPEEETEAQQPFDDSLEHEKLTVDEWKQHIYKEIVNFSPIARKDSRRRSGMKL
The settings on record: 40 μM ATP, read-out: Percent inhibition SAPK4; for inhibition at 0.1 µM: 0.1 μM compound; for inhibition at 1 µM: 1 μM compound. Here is the method:
as §1

The target in another test is T5, MAPK2 (Homo sapiens, UniProt P28482).
T5 construct: purchased Upstate (Charlottesville, Va.)
The settings on record: 40 μM ATP, read-out: Percent inhibition MAPK2; for inhibition at 0.1 µM: 0.1 μM compound; for inhibition at 1 µM: 1 μM compound. On the procedure:
as §1

The subject of a further test is p70S6K. As to conditions: 40 μM ATP. On the procedure:
as §1

A further test concerns the target T6, PKBβ (Homo sapiens, UniProt P31751).
T6 construct: purchased Upstate (Charlottesville, Va.)
The settings on record: 40 μM ATP, read-out: Percent inhibition PKBβ; for inhibition at 0.1 µM: 0.1 μM compound; for inhibition at 1 µM: 1 μM compound. Here is the method:
as §1

In the next test the test system is ROCK-II. The settings on record: 40 μM ATP. On the procedure:
as §1

In another test the target is T7, MAPK1 (Homo sapiens, UniProt P27361).
T7 construct: purchased Upstate (Charlottesville, Va.)
As to conditions: 40 μM ATP, read-out: Percent inhibition MAPK1; for inhibition at 0.1 µM: 0.1 μM compound; for inhibition at 1 µM: 1 μM compound. On the procedure: as §1

Another test deals with T8, Syk (Homo sapiens, UniProt P43405).
T8 construct: purchased Upstate (Charlottesville, Va.)
The settings on record: 40 μM ATP, read-out: Percent inhibition Syk; for inhibition at 0.1 µM: 0.1 μM compound; for inhibition at 1 µM: 1 μM compound. On the procedure:
(§2) Various compounds of the present invention are screened against a panel of 24 additional kinases (Upstate, Charlottesville, Va.). Compounds are tested 0.1 μM and 1 μM in reactions containing 40 μM ATP. Incorporation of radiolabeled phosphate (^32P) into each kinase substrate is measured in the presence and absence of test compound.

The target in the next test is T9, Lck (Homo sapiens, UniProt P06239).
T9 construct: purchased Upstate (Charlottesville, Va.)
As to conditions: 40 μM ATP, read-out: Percent inhibition Lck; for inhibition at 0.1 µM: 0.1 μM compound; for inhibition at 1 µM: 1 μM compound. Here is the method: as §2

For a further test, the target named is T10, InsR (Homo sapiens, UniProt P06213).
T10 construct: purchased Upstate (Charlottesville, Va.)
The settings on record: 40 μM ATP, read-out: Percent inhibition InsR; for inhibition at 0.1 µM: 0.1 μM compound; for inhibition at 1 µM: 1 μM compound. Here is the method:
as §2

T7 sequence (P27361 whole entry): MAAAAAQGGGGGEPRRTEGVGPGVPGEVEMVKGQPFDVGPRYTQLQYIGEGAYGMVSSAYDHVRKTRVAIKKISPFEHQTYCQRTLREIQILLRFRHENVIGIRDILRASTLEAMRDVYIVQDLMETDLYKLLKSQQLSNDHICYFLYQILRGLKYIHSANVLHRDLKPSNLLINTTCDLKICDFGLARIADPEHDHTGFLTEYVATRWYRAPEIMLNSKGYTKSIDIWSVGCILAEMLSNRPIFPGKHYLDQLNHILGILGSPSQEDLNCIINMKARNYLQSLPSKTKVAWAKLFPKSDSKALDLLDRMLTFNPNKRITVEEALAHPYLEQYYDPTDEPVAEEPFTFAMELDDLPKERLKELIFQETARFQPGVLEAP
T6 sequence (P31751 whole entry, species assumed): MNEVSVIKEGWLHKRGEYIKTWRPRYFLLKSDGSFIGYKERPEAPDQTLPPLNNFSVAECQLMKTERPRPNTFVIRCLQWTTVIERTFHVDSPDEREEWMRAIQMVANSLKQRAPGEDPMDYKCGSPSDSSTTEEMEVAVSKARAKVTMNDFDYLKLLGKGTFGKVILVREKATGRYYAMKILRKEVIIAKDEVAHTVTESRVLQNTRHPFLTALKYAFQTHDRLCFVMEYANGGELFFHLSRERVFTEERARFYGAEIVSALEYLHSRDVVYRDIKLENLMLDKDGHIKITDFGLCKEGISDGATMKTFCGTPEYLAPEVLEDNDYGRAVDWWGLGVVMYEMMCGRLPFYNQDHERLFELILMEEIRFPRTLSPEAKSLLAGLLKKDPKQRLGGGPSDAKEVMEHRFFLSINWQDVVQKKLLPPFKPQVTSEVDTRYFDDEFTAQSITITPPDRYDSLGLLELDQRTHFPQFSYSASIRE
T10 sequence (P06213 28-1382, species assumed): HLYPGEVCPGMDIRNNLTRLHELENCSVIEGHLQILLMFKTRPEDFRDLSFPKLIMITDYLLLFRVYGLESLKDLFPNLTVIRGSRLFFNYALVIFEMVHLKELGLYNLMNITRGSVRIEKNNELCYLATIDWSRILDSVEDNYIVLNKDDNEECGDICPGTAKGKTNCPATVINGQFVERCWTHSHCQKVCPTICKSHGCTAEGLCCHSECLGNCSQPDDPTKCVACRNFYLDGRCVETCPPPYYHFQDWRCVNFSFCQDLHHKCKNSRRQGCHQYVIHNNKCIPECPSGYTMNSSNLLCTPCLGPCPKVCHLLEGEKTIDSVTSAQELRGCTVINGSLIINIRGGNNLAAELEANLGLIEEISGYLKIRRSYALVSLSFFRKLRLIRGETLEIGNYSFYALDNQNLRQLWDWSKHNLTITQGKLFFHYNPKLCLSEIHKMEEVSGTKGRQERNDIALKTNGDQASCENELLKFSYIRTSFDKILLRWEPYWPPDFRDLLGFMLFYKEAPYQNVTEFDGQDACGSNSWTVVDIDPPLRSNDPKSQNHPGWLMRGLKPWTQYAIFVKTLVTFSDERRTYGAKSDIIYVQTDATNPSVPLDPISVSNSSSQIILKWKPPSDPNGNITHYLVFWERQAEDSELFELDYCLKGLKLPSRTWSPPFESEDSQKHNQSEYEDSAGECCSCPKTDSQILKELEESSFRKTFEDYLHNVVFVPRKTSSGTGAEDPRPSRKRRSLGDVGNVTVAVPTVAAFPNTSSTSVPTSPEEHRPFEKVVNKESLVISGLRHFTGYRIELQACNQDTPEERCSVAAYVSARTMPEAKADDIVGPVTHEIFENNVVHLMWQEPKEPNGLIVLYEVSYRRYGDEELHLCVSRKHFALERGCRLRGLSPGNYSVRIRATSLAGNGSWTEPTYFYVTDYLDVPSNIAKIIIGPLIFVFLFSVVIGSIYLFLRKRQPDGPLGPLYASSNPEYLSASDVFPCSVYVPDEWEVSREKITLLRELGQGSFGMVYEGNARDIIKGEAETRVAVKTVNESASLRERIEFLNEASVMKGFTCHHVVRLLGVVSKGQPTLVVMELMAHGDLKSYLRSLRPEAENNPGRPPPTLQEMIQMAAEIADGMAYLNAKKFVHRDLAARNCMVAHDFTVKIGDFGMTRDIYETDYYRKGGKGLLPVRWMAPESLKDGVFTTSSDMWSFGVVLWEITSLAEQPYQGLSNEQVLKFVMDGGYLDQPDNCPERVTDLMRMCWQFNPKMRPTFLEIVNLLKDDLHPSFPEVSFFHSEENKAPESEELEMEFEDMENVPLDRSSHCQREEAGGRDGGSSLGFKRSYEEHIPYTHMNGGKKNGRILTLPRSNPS
T3 sequence (P68400 whole entry): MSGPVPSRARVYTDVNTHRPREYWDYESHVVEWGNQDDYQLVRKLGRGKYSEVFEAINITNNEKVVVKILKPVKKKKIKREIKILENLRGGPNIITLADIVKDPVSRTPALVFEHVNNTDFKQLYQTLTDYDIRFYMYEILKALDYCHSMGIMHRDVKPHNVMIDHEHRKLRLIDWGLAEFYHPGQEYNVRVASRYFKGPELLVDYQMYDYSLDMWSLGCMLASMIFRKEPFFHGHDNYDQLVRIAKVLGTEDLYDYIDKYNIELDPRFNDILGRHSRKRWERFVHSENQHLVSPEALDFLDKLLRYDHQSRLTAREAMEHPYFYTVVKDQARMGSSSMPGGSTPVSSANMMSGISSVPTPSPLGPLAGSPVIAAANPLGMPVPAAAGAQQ
T3 sequence (P67870 whole entry partner): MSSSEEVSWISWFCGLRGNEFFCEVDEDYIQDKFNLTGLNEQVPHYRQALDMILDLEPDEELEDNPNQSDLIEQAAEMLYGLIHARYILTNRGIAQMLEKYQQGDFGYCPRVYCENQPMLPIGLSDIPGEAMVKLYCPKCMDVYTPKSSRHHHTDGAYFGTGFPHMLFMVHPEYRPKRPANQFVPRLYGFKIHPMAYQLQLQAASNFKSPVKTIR
T1 sequence (P04049 whole entry, species assumed): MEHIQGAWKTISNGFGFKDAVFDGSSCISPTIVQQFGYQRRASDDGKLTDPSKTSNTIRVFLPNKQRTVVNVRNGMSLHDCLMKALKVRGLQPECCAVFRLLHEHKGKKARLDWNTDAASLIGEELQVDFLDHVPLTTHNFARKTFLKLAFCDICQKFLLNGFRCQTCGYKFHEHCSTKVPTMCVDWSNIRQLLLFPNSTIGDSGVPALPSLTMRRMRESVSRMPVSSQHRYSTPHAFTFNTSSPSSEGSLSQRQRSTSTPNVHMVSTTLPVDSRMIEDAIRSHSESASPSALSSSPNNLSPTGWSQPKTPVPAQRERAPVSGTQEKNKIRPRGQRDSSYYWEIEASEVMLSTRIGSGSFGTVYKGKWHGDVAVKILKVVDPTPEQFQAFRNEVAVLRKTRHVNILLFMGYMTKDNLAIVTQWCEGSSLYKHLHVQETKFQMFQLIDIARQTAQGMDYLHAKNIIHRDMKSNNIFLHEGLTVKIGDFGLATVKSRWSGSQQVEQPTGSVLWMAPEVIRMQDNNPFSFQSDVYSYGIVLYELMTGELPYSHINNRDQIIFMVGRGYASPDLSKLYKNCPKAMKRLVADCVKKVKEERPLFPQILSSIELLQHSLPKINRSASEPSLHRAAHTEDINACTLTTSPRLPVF
T5 sequence (P28482 whole entry): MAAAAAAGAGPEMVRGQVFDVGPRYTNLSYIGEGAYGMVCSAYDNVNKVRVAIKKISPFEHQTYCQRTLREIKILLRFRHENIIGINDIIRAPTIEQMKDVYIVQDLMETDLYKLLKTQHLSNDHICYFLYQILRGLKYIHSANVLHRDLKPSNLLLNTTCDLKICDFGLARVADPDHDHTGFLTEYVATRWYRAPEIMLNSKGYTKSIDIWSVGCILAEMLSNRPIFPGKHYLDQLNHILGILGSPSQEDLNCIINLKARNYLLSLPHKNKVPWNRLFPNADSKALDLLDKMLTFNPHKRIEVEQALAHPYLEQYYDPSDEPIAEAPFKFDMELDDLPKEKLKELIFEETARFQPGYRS
T9 sequence (P06239 whole entry, species assumed): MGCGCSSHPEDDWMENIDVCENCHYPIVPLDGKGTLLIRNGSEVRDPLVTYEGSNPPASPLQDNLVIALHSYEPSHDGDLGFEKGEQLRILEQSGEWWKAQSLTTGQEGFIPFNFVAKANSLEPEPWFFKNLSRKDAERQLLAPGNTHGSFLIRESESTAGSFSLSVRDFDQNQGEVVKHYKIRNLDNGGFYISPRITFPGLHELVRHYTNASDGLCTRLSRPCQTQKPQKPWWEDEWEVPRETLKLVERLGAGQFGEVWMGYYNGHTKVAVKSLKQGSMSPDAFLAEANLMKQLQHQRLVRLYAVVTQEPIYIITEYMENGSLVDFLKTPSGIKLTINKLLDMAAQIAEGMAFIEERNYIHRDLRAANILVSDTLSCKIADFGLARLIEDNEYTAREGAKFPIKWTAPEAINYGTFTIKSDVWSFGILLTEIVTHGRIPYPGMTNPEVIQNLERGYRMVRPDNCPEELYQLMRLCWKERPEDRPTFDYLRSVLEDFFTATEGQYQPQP

With `CS(=O)(=O)N1CCC(Nc2nccc(-c3c(-c4ccc(F)cc4)nc4occn34)n2)CC1` [CCLXXIX], the inhibition at 0.1 µM on c-RAF was found to be 32%; at FGFR3 it was 9%; at CK2, 8%; at SAPK4, 3%; at MAPK2 it was 14%; on PKBβ, 0%. For the same compound, the inhibition at 0.1 µM worked out at 29% on MAPK1, 3% at Syk, 2% at Lck and 9% on InsR. Also, the inhibition at 1 µM on c-RAF is 83%; on FGFR3, 10%; at CK2 it was 4%; at SAPK4, 0%; at MAPK2, 43%; on PKBβ it was -30%. Moreover, the inhibition at 1 µM at MAPK1 is 79%; on Syk, 10%; on Lck it was -3%; at InsR it was 2%. The results for the “Percent inhibition p70S6K” value with p70S6K (0.1 μM compound) and in the test on p70S6K (1 μM compound) were 9 and 10, respectively. For the same compound, the “Percent inhibition ROCK-II” value is 10 with ROCK-II (0.1 μM compound) and 12 with ROCK-II (1 μM compound).

`CC(=O)N1CCC(Nc2nccc(-c3c(-c4ccc(F)cc4)nc4occn34)n2)CC1` [CCLXXVIII]: the inhibition at 0.1 µM on c-RAF is 26%; at FGFR3, 19%; at CK2 it was 5%; on SAPK4, -3%; at MAPK2, 18%; on PKBβ, -3%. The results for the inhibition at 0.1 µM on MAPK1, on Lck and at InsR were 25%, 5% and -28%, respectively. The inhibition at 1 µM at c-RAF was 66%; on FGFR3, 32%; at CK2, 10%; at SAPK4, -4%; at MAPK2, 42%; at PKBβ, 41%. Besides, the inhibition at 1 µM was 63% at MAPK1, 31% at Lck and -4% at InsR. Moreover, the “Percent inhibition p70S6K” value was −11 in the test on p70S6K (0.1 μM compound) and 4 in the test on p70S6K (1 μM compound). Also, the “Percent inhibition ROCK-II” value in the test on ROCK-II (0.1 μM compound) is −6; in the test on ROCK-II (1 μM compound) it was 6.

With `CN1[C@@H]2CC[C@H]1C[C@@H](Nc1nccc(-c3c(-c4ccc(F)cc4)nc4occn34)n1)C2` [CCLXXXI], the inhibition at 0.1 µM was -4% on c-RAF; -27% at FGFR3; 6% at CK2; 2% on SAPK4; 10% on MAPK2; -12% at PKBβ. Further, the inhibition at 0.1 µM at MAPK1 was 25%; on Syk, 17%; at Lck it was 26%; at InsR, -7%. Moreover, the inhibition at 1 µM on c-RAF came to 8%; at FGFR3, 26%; at CK2, 16%; at SAPK4, 7%; at MAPK2, 23%; at PKBβ, 13%. The inhibition at 1 µM at MAPK1 was 49%; on Syk it was 33%; at Lck it was 35%; on InsR, 14%. Besides, the “Percent inhibition p70S6K” value is on record as −16 in the test with p70S6K (0.1 μM compound) and −10 in the test on p70S6K (1 μM compound). For the same compound, the results for the “Percent inhibition ROCK-II” value in the test on ROCK-II (0.1 μM compound) and in the test with ROCK-II (1 μM compound) were 10 and 9, respectively.

On to `Fc1ccc(-c2nc3occn3c2-c2ccnc(NC3CCNCC3)n2)cc1` [CCLXXX], for which the inhibition at 0.1 µM on c-RAF was 21%; on FGFR3, -1%; on CK2, 10%; on SAPK4 it was 0%; at MAPK2 it was -9%; on PKBβ it was -18%. For the same compound, the inhibition at 0.1 µM at MAPK1 is 20%; at Syk, 5%; on Lck it was -3%. For the same compound, the inhibition at 1 µM turned out to be 75% at c-RAF; 13% at FGFR3; 32% on CK2; 6% on SAPK4; 9% on MAPK2; 13% at PKBβ. For the same compound, the values for the inhibition at 1 µM at MAPK1, at Syk and at Lck were 45%, 40% and 27%, respectively. The “Percent inhibition p70S6K” value in the test with p70S6K (0.1 μM compound) is given as 7; in the test on p70S6K (1 μM compound) it was 18. Besides, the results for the “Percent inhibition ROCK-II” value in the test with ROCK-II (0.1 μM compound) and in the test with ROCK-II (1 μM compound) were 8 and 10, respectively.

In the case of `CN(C)CC(C)(C)CNc1nccc(-c2c(-c3ccc(F)cc3)nc3occn23)n1` [CXIX], the inhibition at 0.1 µM is -3% on c-RAF; 9% at FGFR3; 9% at CK2; 3% at SAPK4; 10% at MAPK2; -4% at PKBβ. Further, the inhibition at 0.1 µM at MAPK1 is 7%; at Syk, 35%; on InsR, 8%. In addition, the inhibition at 1 µM at c-RAF was 3%; on FGFR3 it was -2%; at CK2, 3%; on SAPK4, -4%; on MAPK2, 7%; at PKBβ, -19%. In addition, the inhibition at 1 µM on MAPK1 is 15%; at Syk, 33%; on InsR it was 3%. Also, the figures for the “Percent inhibition p70S6K” value in the test on p70S6K (0.1 μM compound) and in the test with p70S6K (1 μM compound) were 0 and −5, respectively. The “Percent inhibition ROCK-II” value in the test with ROCK-II (0.1 μM compound) is given as 16; in the test on ROCK-II (1 μM compound), −8.

For `Fc1ccc(-c2nc3occn3c2-c2ccnc(N[C@@H]3CN4CCC3CC4)n2)cc1` [LXXI], the inhibition at 0.1 µM is 7% at c-RAF; -1% at FGFR3; 3% at CK2; -1% on SAPK4; -5% on MAPK2; -42% at PKBβ. For the same compound, the inhibition at 0.1 µM was 27% at MAPK1, -5% on Syk, 8% on Lck and -25% on InsR. In addition, the inhibition at 1 µM was 42% on c-RAF; 16% at FGFR3; 12% on CK2; 3% at SAPK4; 18% at MAPK2; -5% at PKBβ. Besides, the inhibition at 1 µM amounted to 56% at MAPK1, 33% at Syk, 17% at Lck and 12% at InsR. For the same compound, the “Percent inhibition p70S6K” value is −10 in the test with p70S6K (0.1 μM compound) and 6 in the test with p70S6K (1 μM compound). The “Percent inhibition ROCK-II” value in the test with ROCK-II (0.1 μM compound) is reported as −7; in the test with ROCK-II (1 μM compound), 10.

For orientation: inhibition means the relative decrease from the control value, in per cent.
